Experimental data taken from patent US7888059B2, “Highly purified and stabilized Na,K-ATPase isoforms and methods of producing same” (Yeda Research and Development Co. Ltd., priority 2006, dated 2011).
Read-outs that look alike come from different tables or passages of the source.

Columns and labels:
Type in all cases: biochemical
Na,K-ATPase = Na,K-ATPase activity and stability with different phosphatidyl serines (FIG. 7); settings: for NKA activity: measured immediately after elution from the BD Talon beads
Experimental: (§1) Urea-treated membranes were homogenized with n-dodecyl-β-maltoside (DDM:protein, 2:1 w/w) (cat. No D310, Anatrace) in a medium containing NaCl, 250 mM; Tris.HCl, 20 mM pH 7.4; imidazole, 5 mM; PMSF, 0.5 mM; and glycerol, 10%. The protein concentration could be varied from 1-5 mg/ml and DDM adjusted accordingly from 2-10 mg/ml respectively. The unsolubilized material was removed by ultracentrifugation. Purification was done by metal-chelate chromatography using BD Talon, metal affinity resin (Co^2+-chelate). The DDM-solubilized membranes were incubated overnight at 4° C. with BD Talon beads, at a ratio of 100 μl beads per supernatant from 10 mg of membranes. EDTA was added at 50-250 μM at protein concentrations 1-5 mg/ml, respectively. The beads were washed twice for five minutes with vortexing with five volumes of a solution containing NaCl, 100 mM; Tris.HCl, 20 mM pH 7.4; C12E8, 0.1 mg/ml; DOPS or SOPS 0.05 mg/ml or other lipids and cholesterol at 0.01 mg/ml, as indicated; glycerol, 10%, and imidazole, 10 mM. Protein was eluted by mixing the beads for 40 minutes at 0° C. with one volume of a solution containing imidazole, 150 mM; NaCl, 100 mM; Tris.HCl, 20 mM pH 7.4, C12E8, 0.1 mg/ml; DOPS, or SOPS 0.05 mg/ml or other lipids and cholesterol as indicated; glycerol, 10%. The eluted protein was stored at 0° C. […] Protein concentration was determined by comparative gel densitometry with pig kidney Na^+,K^+-ATPase or by Lowry assay.
(§2) Na^+,K^+-ATPase assays were done as described in (Cohen et al., 2005, J Biol Chem, 280, 16610-16618; Strugatsky et al., 2003, J Biol Chem, 278, 46064-46073). 0.1-0.2 μg of purified protein was incubated at 37° C. for 2-10 min in 0.1 ml of Na,K-ATPase reaction medium containing 130 mM NaCl; 20 mM KCl; 3 mM MgCl2; 25 mM Histidine pH 7.4. The reaction was started by addition of 2 mM ATP [^32P-ATP].
The experiment in FIG. 7 compared the stability with different chain lengths and saturation of the side chains.

human α1β1 [1] = target: T1, human α1β1 (Homo sapiens, UniProt P05023); assay: Initial Na,K-ATPase activity of human α1β1 prepared with phospholipid with or without cholesterol; settings: human α1β1, initial activity following elution from the beads, 37° C.
T1 construct: The coding regions were excised with XbaI and subcloned; made in house; host or cells: Pichia pastoris SMD1165
Experimental: as §1, with “mM.” for “mM. Protein was eluted by mixing the beads for 40 minutes at 0° C. with one volume of a solution containing imidazole, 150 mM; NaCl, 100 mM; Tris.HCl, 20 mM pH 7.4, C12E8, 0.1 mg/ml; DOPS, or SOPS 0.05 mg/ml or other lipids and cholesterol as indicated; glycerol, 10%. The eluted protein was stored at 0° C.”, “assay. […]” for “assay.”

porcine α1β1 = target: T2, porcine α1β1 (Sus scrofa, UniProt P05024); assay: Na,K-ATPase activity of porcine α1β1 with different phospholipids (FIG. 6A); settings: porcine α1β1, FIG. 6A
T2 construct: made in house; host or cells: Pichia pastoris SMD1165
Experimental: as §1, §2
Both DOPS and DOPI are acid phospholipids, while DOPC and DOPE have no net charge.

human α1β1 [2] = target: T1, human α1β1; assay: Stabilization of human α1β1 Na,K-ATPase activity over time (lipids, sterols, FXYD1); settings: for stabilizing effect of sterol on Na,K-ATPase activity: human α1β1 prepared with DOPS or DOPC, FIGS. 9A-B
Experimental: as §1, §2
(§3) Aliquots of the preparations were incubated either at 37° C. or 45° C., respectively, for the indicated times, and then returned to 0° C., prior to measurement of Na,K-ATPase activity.

human α1β1 [3] = assay: as above
Experimental: as §1, §2, §3

human α2β1 [4] = target: T3, human α2β1 (Homo sapiens, UniProt P50993); assay: Stabilization of human α2β1 Na,K-ATPase activity over time (lipids, sterols, FXYD1); settings: for stabilizing effect of sterol on α2β1 complex: 0° C., together with DOPS
T3 construct: The coding regions were excised with XbaI and subcloned; made in house; host or cells: Pichia pastoris SMD1165 (clone "b", induced at 20° C.)
Experimental: as §1, §2, §3

human α2β1 [5] = target: T3, human α2β1; assay: biochemical
Experimental: as §2
(§4) The inhibitor was added directly to the reaction medium at 37° C. immediately prior to addition of ATP, which starts the reaction.

human α1β1 [6] = target: T1, human α1β1; assay: biochemical
Experimental: as §2, §4

## CCCCCCCCCCCCCC(=O)OC[C@H](COP(=O)(O)OC[C@H](N)C(=O)O)OC(=O)CCCCCCCCCCCCC [DMPS, 1,2-Dimyristoyl-sn-Glycero-3-[Phospho-L-Serine]]
Na,K-ATPase
  NKA activity: 11.48 µmol/min/mg

## CCCCCCCC/C=C\CCCCCCCC(=O)OC[C@H](COP(=O)([O-])OCC[N+](C)(C)C)OC(=O)CCCCCCC/C=C\CCCCCCCC [DOPC, 1,2-Dioleoyl-sn-Glycero-3-Phosphocholine]
Human α1β1 [1]
  Na, K-ATPase activity: 14.28 µmol/min/mg
Porcine α1β1
  maintenance of Na,K-ATPase activity with phospholipid: somewhat lower initial Na,K-ATPase activity at 37 °C than for DOPS

## CCCCCCCC/C=C\CCCCCCCC(=O)OC[C@H](COP(=O)(O)OCCN)OC(=O)CCCCCCC/C=C\CCCCCCCC [DOPE, 1,2-Dioleoyl-sn-Glycero-3-Phosphoethanolamine]
Porcine α1β1
  maintenance of Na,K-ATPase activity with phospholipid: DOPS>DOPI>>DOPE

## CCCCCCCC/C=C\CCCCCCCC(=O)OC[C@H](COP(=O)(O)OC1C(O)C(O)C(O)[C@@H](O)C1O)OC(=O)CCCCCCC/C=C\CCCCCCCC (some centres unmarked) [DOPI, 1,2-Dioleoyl-sn-Glycero-3-Phosphoinositol]
Porcine α1β1
  maintenance of Na,K-ATPase activity with phospholipid: DOPS>DOPI>>DOPE

## CCCCCCCC/C=C\CCCCCCCC(=O)OC[C@H](COP(=O)(O)OC[C@H](N)C(=O)O)OC(=O)CCCCCCC/C=C\CCCCCCCC [DOPS, 1,2-Dioleoyl-sn-Glycero-3-[Phospho-L-Serine]]
Human α1β1 [1]
  Na, K-ATPase activity: 11.64 µmol/min/mg
Porcine α1β1
  maintenance of Na,K-ATPase activity with phospholipid: DOPS>DOPI>>DOPE
Human α1β1 [2]; 37° C., human α1β1 prepared with DOPS, without PLM
  half-time for loss of activity: about 70 minutes
Human α1β1 [2]; after 120 minutes at 37° C., human α1β1 prepared with DOPS, without PLM
  remaining activity, of initial activity: approximately 20%
Na,K-ATPase
  NKA activity: 11.42 µmol/min/mg

## CCCCCCCCCCCCCCCC(=O)OC[C@H](COP(=O)(O)OC[C@H](N)C(=O)O)OC(=O)CCCCCCCCCCCCCCC [DPPS, 1,2-Dipalmitoyl-sn-Glycero-3-[Phospho-L-Serine]]
Na,K-ATPase
  NKA activity: 6.46 µmol/min/mg

## CCCCCCCCCCCCCCCCCC(=O)OC[C@H](COP(=O)(O)OC[C@H](N)C(=O)O)OC(=O)CCCCCCCCCCCCCCCCC [DSPS, 1,2-Distearoyl-sn-Glycero-3-[Phospho-L-Serine]]
Na,K-ATPase
  NKA activity: 4.72 µmol/min/mg

## CCCCCCCC/C=C\CCCCCCCC(=O)O[C@H](COC(=O)CCCCCCCCCCCCCCC)COP(=O)(O)OC[C@H](N)C(=O)O [POPS, 1-Palmitoyl-2-Oleoyl-sn-Glycero-3-[Phospho-L-Serine]]
Na,K-ATPase
  NKA activity: 12.58 µmol/min/mg

## CCCCCCCC/C=C\CCCCCCCC(=O)O[C@H](COC(=O)CCCCCCCCCCCCCCCCC)COP(=O)(O)OC[C@H](N)C(=O)O [SOPS, I-Stearoyl-2-Oleoyl-sn-Glycero-3-[Phospho-L-Serine]]
Human α1β1 [3]; 37° C. and 0° C., FIGS. 8A-B (porcine and human α1β1)
  stabilizing effect of phosphatidyl serine on α1β1: significantly more stabilizing than DOPS
Na,K-ATPase; 0° C., FIG. 7
  stability of Na,K-ATPase activity over time: declined even more slowly than with the standard DOPS
Na,K-ATPase
  NKA activity: 11.92 µmol/min/mg

## CC(C)CCC[C@@H](C)[C@H]1CC[C@H]2[C@@H]3CC=C4C[C@@H](O)CC[C@]4(C)[C@H]3CC[C@]12C [cholesterol]
Human α1β1 [2]; 37° C.
  stabilizing effect of sterol on Na,K-ATPase activity: greatly stabilizes
Human α2β1 [4]
  stabilizing effect of sterol on α2β1 complex: greatly stabilized

## C[C@H]1O[C@@H](O[C@H]2[C@@H](O)C[C@H](O[C@H]3[C@@H](O)C[C@H](O[C@H]4CC[C@@]5(C)[C@H](CC[C@@H]6[C@@H]5C[C@@H](O)[C@]5(C)[C@@H](C7=CC(=O)OC7)CC[C@]65O)C4)O[C@@H]3C)O[C@@H]2C)C[C@H](O)[C@@H]1O [digoxin]
Human α2β1 [5]
  offset (activity not inhibited), α2β1: 0.058±0.016
Human α1β1 [6]
  offset (activity not inhibited), α1β1: no significant offset

## CC(C)[C@@H](C)/C=C/[C@@H](C)[C@H]1CC[C@H]2C3=CC=C4C[C@@H](O)CC[C@]4(C)[C@H]3CC[C@]12C [ergosterol]
Human α1β1 [2]; 37° C.
  stabilizing effect of sterol on Na,K-ATPase activity: only a minor stabilizing effect
Human α2β1 [4]
  stabilizing effect of sterol on α2β1 complex: much less effective than cholesterol

## CO[C@H]1[C@H](O)[C@H](O[C@H]2CC[C@@]3(C)[C@H](CC[C@@H]4[C@@H]3CC[C@]3(C)[C@@H](C5=CC(=O)OC5)CC[C@]43O)C2)O[C@@H](C)[C@@H]1O [neriifolin]
Human α2β1 [5]; 37° C., FIG. 18B
  offset, α2: 0.12
Human α2β1 [5]; K0.5 for inhibition, α2, 37° C., FIG. 18B, reaction time not stated
  IC50: 29 ± 4.1 nM
Human α1β1 [6]; 37° C., FIG. 18B
  offset, α1: 0
Human α1β1 [6]; K0.5 for inhibition, α1, 37° C., FIG. 18B, reaction time not stated
  IC50: 50 ± 7 nM
Human α1β1 [6]; conditions of the Na,K-ATPase reaction at 37° C.
  α1/α2 preference: no significant α1/α2 preference

## C[C@@H]1O[C@@H](O[C@H]2C[C@@H](O)[C@]3(CO)[C@H]4[C@H](O)C[C@]5(C)[C@@H](C6=CC(=O)OC6)CC[C@]5(O)[C@@H]4CC[C@]3(O)C2)[C@H](O)[C@H](O)[C@H]1O [ouabain]
Human α2β1 [5]; 37° C., 60 minutes
  offset (activity not inhibited), α2β1: 0.056±0.017
Human α2β1 [5]; 37° C., reaction 10 minutes
  offset (activity not inhibited), α2β1: 0.069±0.01
Human α1β1 [6]; 37° C., reaction 10 minutes
  extent of inhibition of α1β1: fully inhibited

## PLM: human FXYD1, subsidiary subunit of Na,K-ATPase, Genbank Accession No. H23593
Human α1β1 [3]; 37° C., human α1β1, PLM with DOPS preparation, SOPS/cholesterol without PLM
  stability of Na,K-ATPase activity: essentially no loss of activity up to 120 minutes
Human α2β1 [4]; 37° C., α2β1 prepared with SOPS/cholesterol with PLM
  stability of Na,K-ATPase activity: essentially stable for 60 minutes at 37 °C
